Format in all cases: cell-based
For assay [1], the system named is NRF2 (nuclear factor erythroid 2-related factor 2). Put plainly: NRF2 activation assay (DiscoverX PathHunter NRF2 translocation kit, U2OS cells). The settings on record: for Emax / EC50: Homo sapiens; for Emax: U2OS; for EC50: U2OS PathHunter cells, 6 hours.
Assay [2] deals with IL-6 cytokine output from THP-1s. The assay is described as follows: THP-1 AlphaLISA IL-6 cytokine assay (differentiated THP-1 cells, LPS then nigericin). Conditions: 30 min pre-incubation, LPS 24 hr, nigericin 1 hour. How it is done:
(§1) Measuring Inhibitory Effects on IL-1β and IL-6 Cytokine Output from THP-1s
(§2) The cytokine inhibition profiles of compounds of formula (I) were determined in a differentiated THP-1 cell assay. All assays were performed in RPMI-1640 growth medium (Gibco), supplemented with 10% fetal bovine serum (FBS; Gibco), 1% penicillin-streptomycin and 1% sodium pyruvate unless specified otherwise. The IL-1β and IL-6 cytokine inhibition assays were each run in a background of differentiated THP-1 cells as described below. All reagents described were from Sigma-Aldrich unless specified otherwise. Compounds were prepared as 10 mM DMSO stocks.
(§3) THP-1 cells were expanded as a suspension up to 80% confluence in appropriate growth medium. Cells were harvested, suspended, and treated with an appropriate concentration of phorbol 12-myristate 13-acetate (PMA) over a 72 hr period (37° C./5% CO2).
(§4) Following 72 hrs of THP-1 cell incubation, cellular medium was removed and replaced with fresh growth media containing 1% of FBS. Working concentrations of compounds were prepared separately in 10% FBS treated growth medium and pre-incubated with the cells for 30 minutes (37° C./5% CO2). Following the 30 minute compound pre-incubation, THP-1s were treated with an appropriate concentration of LPS and the THP-1s were subsequently incubated for a 24 hr period (37° C./5% CO2). An appropriate final concentration of Nigericin was then dispensed into the THP-1 plates and incubated for 1 hour (37° C./5% CO2) before THP-1 supernatants were harvested and collected in separate polypropylene 96-well holding plates.
(§5) Reagents from each of the IL-1β and IL-6 commercial kits (Perkin Elmer) were prepared and run according to the manufacturer's instructions. Subsequently, fluorescence signal detection in a microplate reader was measured (EnVision® Multilabel Reader, Perkin Elmer).
(§6) Percentage inhibition was calculated per cytokine by normalizing the sample data to the high and low controls used within each plate (+/−LPS respectively).

The test system of assay [3] is IL-1β cytokine output from THP-1s. The assay is described as follows: THP-1 AlphaLISA IL-1β cytokine assay (differentiated THP-1 cells, LPS then nigericin). The settings on record: 30 min pre-incubation, LPS 24 hr, nigericin 1 hour. How it is done:
as §1, §2, §3, §4, §5, §6

The mark [4] stands for this setting: +GSH, normalised to dimethyl fumarate high control.
Where [5] appears, read: −GSH, normalised to dimethyl fumarate high control.
[6] abbreviates: +GSH (30 minute compound/GSH pre-incubation).

Molecules are shown by their SMILES.

The Emax is the size of the effect at its maximum, as opposed to the concentration needed. In general, EC50 refers to the concentration at which the effect is half-maximal. Read a high EC50 as a less potent agent. The term IC50 denotes the concentration needed to halve the response being measured.

For `C=C(CC(=O)O[C@@H](C)c1ccc(C(F)(F)F)cc1)C(N)=O` [Example 9, (S)-1-(4-(trifluoromethyl)phenyl)ethyl 3-carbamoylbut-3-enoate], the Emax was found to be 26% in assay [1] (setting [4]) and 110% in assay [1] (setting [5]). The EC50 in assay [1] (setting [6]) was > 100 µM; in assay [1] (−GSH) it was 13.7 µM. Besides, the IC50 in assay [2] (Homo sapiens) amounted to 4.5 µM; in assay [3] (Homo sapiens) it was 10 µM.
On to `C=C(CC(=O)OCCCCCCCC)C(=O)O` [4-octyl itaconate, reference compound], for which, in assay [1] (setting [4]), the “NRF2 activation Emax, +GSH” value is reported as 148%. Moreover, the “NRF2 activation Emax, −GSH” value in assay [1] (setting [5]) is reported as 165%. Moreover, the half-maximal inhibitory concentration (IC50) in assay [2] turned out to be 21.1 µM; in assay [3], 39.8 µM.
For `C=C(CC(=O)OC1(c2ccc(C(F)(F)F)cc2)CCC1)C(=O)NC` [Example 7, 1-(4-(trifluoromethyl)phenyl)cyclobutyl 3-(methylcarbamoyl)but-3-enoate], the Emax in assay [1] (setting [4]) stood at 27%; in assay [1] (setting [5]), 119%. The 50% effective concentration (EC50) in assay [1] (setting [6]) is > 100 µM; in assay [1] (−GSH), 12.6 µM. The figures for the IC50 in assay [2] (Homo sapiens) and in assay [3] (Homo sapiens) were 12.1 µM and 20.5 µM, respectively.
On to `C=C(CC(=O)OC1(c2ccc(C(F)(F)F)cc2)CCC1)C(=O)NC1CCN(C)CC1` [Example 23, 1-(4-(trifluoromethyl)phenyl)cyclobutyl 3-((1-methylpiperidin-4-yl)carbamoyl)but-3-enoate], for which the IC50 in assay [2] (Homo sapiens) is 24.1 µM; in assay [3] (Homo sapiens), > 31.6 µM.
In the case of `C=C(Cc1nc(C2(c3ccc(SC(F)(F)F)cc3)CC2)no1)C(=O)NC(C(=O)O)C(F)(F)F` (stereo not drawn) [Example 28, 3,3,3-trifluoro-2-(2-((3-(1-(4-((trifluoromethyl)thio)phenyl)cyclopropyl)-1,2,4-oxadiazol-5-yl)methyl)acrylamido)propanoic acid], the maximal response (Emax) in assay [1] (setting [4]) was determined as 34%; in assay [1] (setting [5]) it was 67%. In addition, the EC50 is > 100 µM in assay [1] (setting [6]) and 31.8 µM in assay [1] (−GSH). Moreover, the 50% inhibitory concentration (IC50) in assay [2] (Homo sapiens) is 16.2 µM; in assay [3] (Homo sapiens), 7.9 µM.
`C=C(CC(=O)OC)C(=O)OC` [dimethyl itaconate, reference compound] gave an Emax in assay [1] (setting [5]) of 126%. Besides, the concentration for half-maximal inhibition (IC50) in assay [2] (Homo sapiens) and in assay [3] (Homo sapiens) was > 100 µM each time.
Regarding `C=C(CC(=O)OC1(c2ccc(C(F)(F)F)cc2)CCC1)C(=O)NCCS(C)(=O)=O` [Example 26, 1-(4-(trifluoromethyl)phenyl)cyclobutyl 3-((2-(methylsulfonyl)ethyl)carbamoyl)but-3-enoate], the 50% inhibitory concentration (IC50) in assay [2] (Homo sapiens) was 11.3 µM; in assay [3] (Homo sapiens) it was 18 µM.
`C=C(CC(=O)OC1(c2cc(Cl)cc(Cl)c2)CCC1)C(N)=O` [Example 20, 1-(3,5-dichlorophenyl)cyclobutyl 3-carbamoylbut-3-enoate]: the Emax in assay [1] (setting [4]) is 28%; in assay [1] (setting [5]) it was 156%. Also, the EC50 in assay [1] (setting [6]) is > 100 µM; in assay [1] (−GSH), 35.2 µM. The half-maximal inhibitory concentration (IC50) in assay [2] (Homo sapiens) turned out to be 8.3 µM; in assay [3] (Homo sapiens) it was 13.2 µM.
Turning to `C=C(Cc1nc(Cc2ccc(CCCC)cc2)no1)C(=O)Nc1ccccn1` [Example 3, 2-((3-(4-butylbenzyl)-1,2,4-oxadiazol-5-yl)methyl)-N-(pyridin-2-yl)acrylamide], the IC50 in assay [3] (Homo sapiens) was found to be 4.5 µM.
Same read-out and setting: the value for `C=C(Cc1nc(Cc2ccc(CCCC)cc2)no1)C(=O)Nc1ncc(C)s1` [Example 5, 2-((3-(4-butylbenzyl)-1,2,4-oxadiazol-5-yl)methyl)-N-(5-methylthiazol-2-yl)acrylamide] was 1.9 µM.
As for `C=C(CC(=O)O[C@H](C)c1ccc(C(F)(F)F)cc1)C(=O)NC` [Example 11, (R)-1-(4-(trifluoromethyl)phenyl)ethyl 3-(methylcarbamoyl)but-3-enoate], the IC50 came to 1.9 µM in assay [2] (Homo sapiens) and 3.3 µM in assay [3] (Homo sapiens).
As to `C=C(CC(=O)OC1(c2ccc(C(F)(F)F)cn2)CCC1)C(=O)NC` [Example 17, 1-(5-(trifluoromethyl)pyridin-2-yl)cyclobutyl 3-(methylcarbamoyl)but-3-enoate], the figures for the IC50 in assay [2] (Homo sapiens) and in assay [3] (Homo sapiens) were 4.8 µM and 14.4 µM, respectively.
On the same counts, the results for `C=C(CC(=O)OC(C)(C)CCCCCC)C(=O)Nc1cnccn1` [Example 6, 2-methyloctan-2-yl 3-(pyrazin-2-ylcarbamoyl)but-3-enoate] are 2.1 µM and 3.8 µM.
Turning to `C=C(CC(=O)OC1(c2ccc(C(F)(F)F)cn2)COC1)C(=O)NC` [Example 15, 3-(5-(trifluoromethyl)pyridin-2-yl)oxetan-3-yl 3-(methylcarbamoyl)but-3-enoate], the IC50 in assay [2] (Homo sapiens) was found to be 10.9 µM; in assay [3] (Homo sapiens), 13.1 µM.
In the case of `C=C(CC(=O)O[C@H](C)c1ccc(C(F)(F)F)cc1)C(N)=O` [Example 12, (R)-1-(4-(trifluoromethyl)phenyl)ethyl 3-carbamoylbut-3-enoate], the 50% inhibitory concentration (IC50) in assay [2] (Homo sapiens) was determined as 14.4 µM; in assay [3] (Homo sapiens), 20 µM.
In the case of `C=C(CC(=O)OC1(c2ccc(C(F)(F)F)cn2)COC1)C(N)=O` [Example 16, 3-(5-(trifluoromethyl)pyridin-2-yl)oxetan-3-yl 3-carbamoylbut-3-enoate], the results for the 50% inhibitory concentration (IC50) in assay [2] (Homo sapiens) and in assay [3] (Homo sapiens) were 4.6 µM and 8.6 µM, respectively.
For `C=C(Cc1nc(Cc2ccc(CCCC)cc2)no1)C(=O)Nc1cnccn1` [Example 4, 2-((3-(4-butylbenzyl)-1,2,4-oxadiazol-5-yl)methyl)-N-(pyrazin-2-yl)acrylamide], the IC50 in assay [3] (Homo sapiens) amounted to 1.1 µM.
In the case of `C=C(CC(=O)O[C@@H](C)c1ccc(C(F)(F)F)cc1)C(=O)NC` [Example 10, (S)-1-(4-(trifluoromethyl)phenyl)ethyl 3-(methylcarbamoyl)but-3-enoate], the 50% inhibitory concentration (IC50) in assay [2] (Homo sapiens) is 3.5 µM; in assay [3] (Homo sapiens), 10.5 µM.
Take `C=C(CC(=O)OC1(c2ccc(C(F)(F)F)c(F)c2)CCC1)C(N)=O` [Example 21, 1-(3-fluoro-4-(trifluoromethyl)phenyl)cyclobutyl 3-carbamoylbut-3-enoate]: the half-maximal inhibitory concentration (IC50) in assay [2] (Homo sapiens) is 6.9 µM; in assay [3] (Homo sapiens) it was 15.4 µM.
For `C=C(CC(=O)OC1(c2ccc(C(F)(F)F)cc2)CCC1)C(=O)NC1CS(=O)(=O)C1` [Example 25, 1-(4-(trifluoromethyl)phenyl)cyclobutyl 3-((1,1-dioxidothietan-3-yl)carbamoyl)but-3-enoate], the concentration for half-maximal inhibition (IC50) was determined as 9.5 µM in assay [2] (Homo sapiens) and 19.9 µM in assay [3] (Homo sapiens).
For `C=C(CC(=O)OC1(c2ccc(C(F)(F)F)cc2)COC1)C(N)=O` [Example 14, 3-(4-(trifluoromethyl)phenyl)oxetan-3-yl 3-carbamoylbut-3-enoate], in that order: 4.4 µM and 6.5 µM.
Take `C=C(CC(=O)OC1(c2ccc(C(F)(F)F)cn2)CCC1)C(N)=O` [Example 18, 1-(5-(trifluoromethyl)pyridin-2-yl)cyclobutyl 3-carbamoylbut-3-enoate]: the figures for the IC50 in assay [2] (Homo sapiens) and in assay [3] (Homo sapiens) were 14.4 µM and 9.3 µM, respectively.
Consider `C=C(CC(=O)OC1(c2ccc(C(F)(F)F)cc2)CCC1)C(=O)NCCN1CCOCC1` [Example 24, 1-(4-(trifluoromethyl)phenyl)cyclobutyl 3-((2-morpholinoethyl)carbamoyl)but-3-enoate], for which the IC50 in assay [2] (Homo sapiens) is 6.8 µM; in assay [3] (Homo sapiens), 8.6 µM.
As to `C=C(CC(=O)OC1(c2ccc(C(F)(F)F)cc2)CCC1)C(=O)NCC(=O)O` [Example 29, (2-methylene-4-oxo-4-(1-(4-(trifluoromethyl)phenyl)cyclobutoxy)butanoyl) glycine], the half-inhibitory concentration (IC50) in assay [2] (Homo sapiens) is > 31.6 µM; in assay [3] (Homo sapiens), > 100 µM.
Consider `C=C(Cc1ccccc1Cl)C(=O)O` [2-(2-chlorobenzyl)acrylic acid, reference compound], for which the Emax was 9% in assay [1] (setting [4]) and 2% in assay [1] (setting [5]). Further, the 50% effective concentration (EC50) in assay [1] (setting [6]) and in assay [1] (−GSH) was > 100 µM each time. Moreover, the half-inhibitory concentration (IC50) in assay [3] (Homo sapiens) was > 100 µM.
With `C=C(CC(=O)OC1(c2ccc(C(F)(F)F)cc2)COC1)C(=O)NC` [Example 13, 3-(4-(trifluoromethyl)phenyl)oxetan-3-yl 3-(methylcarbamoyl)but-3-enoate], the IC50 amounted to 2.6 µM in assay [2] (Homo sapiens) and 17.5 µM in assay [3] (Homo sapiens).
As to `C=C(Cc1nc(C2(c3ccc(SC(F)(F)F)cc3)CC2)no1)C(=O)Nc1ncc(C)s1` [Example 1, N-(5-methylthiazol-2-yl)-2-((3-(1-(4-((trifluoromethyl)thio)phenyl)cyclopropyl)-1,2,4-oxadiazol-5-yl)methyl)acrylamide], the 50% inhibitory concentration (IC50) in assay [2] (Homo sapiens) was 0.9 µM; in assay [3] (Homo sapiens), 1 µM.
For `C=C(CC(=O)OC1(c2cc(Cl)cc(Cl)c2)CCC1)C(=O)NC` [Example 19, 1-(3,5-dichlorophenyl)cyclobutyl 3-(methylcarbamoyl)but-3-enoate], the IC50 in assay [2] (Homo sapiens) turned out to be 3.3 µM; in assay [3] (Homo sapiens) it was 17.5 µM.

(Values after patent publication US20240335451A1, “ACRYLAMIDE DERIVATIVES USEFUL AS ANTI-INFLAMMATORY AGENTS” (Sitryx Therapeutics Limited, priority 2021, published 2024).)
